From US9133203B2, “Pyrroloquinazoline compounds” (OREGON HEALTH & SCIENCE UNIVERSITY, priority 2013, dated 2015)

Columns and labels:
[1] = tested on: MDA-MB-231; experiment: MTT antiproliferation assay in MDA-MB-231 cells; format: cell-based; conditions: Homo sapiens, concentration that limits growth by 50%, 72 hour incubation, mean ± SD, at least two experiments in duplicate
Description: (§1) The newly synthesized selectively mono-N-acylated compounds of series 4 and series 7 were evaluated as potential anticancer agents because compound 1 had been previously shown to display anticancer activity by inhibiting DHFR (Kuyper L F et al, J Med Chem 39, 892-903 (1996); incorporated by reference herein). Compounds of series 2 were not evaluated due to their poor solubility in DMSO. Two triple negative breast cancer (TN BC) cell lines (MDA-MB-231 and MDAMB-468) were selected to evaluate potential anticancer activity of the compounds of series 4 and series 7 by an MTT assay (Li B X et al, Bioorg Med Chem 20, 6811-6820 (2012); incorporated by reference herein.) TNBC represents a unique subtype of breast cancer clinically characterized by the lack of expression of estrogen receptor (ER), progesterone receptor (PR) and human epidermal growth factor receptor 2 (HER2). Subjects with triple negative breast cancer often have a poor prognosis (Kang S P et al, Curr Opin Obstet Gynecol 20, 40-46 (2008) and The Cancer Genome Atlas Network Nature, 490, 61-70 (2012); both of which are incorporated by reference herein). Current treatment options for TNBC are limited and novel agents are needed (Shastry M and Yardley D A, Curr Opin Obstet Gynecol 25, 40-48 (2013); incorporated by reference herein).
(§2) GI50 values represent the concentration that limits the growth of the cancer cells by 50% during a 72 hour incubation period. These are presented as mean±standard deviation of the mean of at least two independent experiments performed in duplicate.
(§3) TMTT assays for MDA-MB-231, MDA-MB-468 and HMEC were performed as described in Li et al, 2012 supra.

[2] = tested on: MDA-MB-468; experiment: MTT antiproliferation assay in MDA-MB-468 cells; format: cell-based; conditions: Homo sapiens, concentration that limits growth by 50%, 72 hour incubation, mean ± SD, at least two experiments in duplicate
Description: as §1, §2, §3

[3] = Stability in HPLC mobile phase containing TFA; format: physicochemical; conditions: HPLC mobile phase water/acetonitrile with 0.1% TFA
Description: The solvents used for each reaction were purified from the Glass Contout solvent purification system. Melting points were determined in capillary tubes using MeI-Temp and are uncorrected. NMR spectra were recorded at 400 MHz (^1H NMR) and 100 MHz (^13C NMR). Chemical shifts (δ) are reported in ppm relative to the residual CHCl3 (1H, 7.26 ppm, 13C, 77.0 ppm) or DMSO (1H, 2.50 ppm, 13C, 39.5 ppm). The following abbreviations were used to describe the splitting pattern of individual peaks if applicable: s=singlet, d=doublet, t=triplet, q=quartet, m=multiplet. The coupling constants (J) were reported in Hertz (Hz). Silica gel flash chromatography was performed using 230-400 mesh silica gel (EMD). The mass spectra were obtained from an LTQ Orbitrap Discovery mass spectrometer (Thermo Scientific, West Palm Beach, Fla.) with electrospray operated either in positive or negative mode. All final compounds were confirmed to be of >95% purity based on HPLC (Waters) analysis using an XBridge C18 column (4.6×150 mm) and detected at 254 nm (due to the poor solubility, compound 2a-2d were not evaluated by HPLC). The mobile phases for HPLC are water and acetonitrile, both of which contain 0.1% TFA (for compounds 2e, 4e, and 7e which contain a TBS group, 0.01% TFA was used due to instability of these compounds in 0.1% TFA).

[4] = Solubility observations; format: physicochemical; conditions: high-quality 13C NMR spectra could not be obtained
[5] = tested on: normal human mammary epithelial cells (HMEC); experiment: MTT viability assay in normal human mammary epithelial cells; format: cell-based
Description: FIG. 2 is a plot showing the effect of compound 7f on normal human mammary epithelial cells (HMEC.) HMEC were treated with the indicated concentrations of doxorubicin or 7f for 24 or 72 hours as indicated. Cells treated for 24 hours were further incubated in drug free media for 48 hours. The number of viable cells was determined by an MTT assay.
as §3

[6] = biological target: T1, human DHFR (Homo sapiens, UniProt P00374); experiment: In vitro human DHFR inhibition; format: biochemical; conditions: DHFR assay kit, NADPH 60 μM, DHF 50 μM
T1 construct: purchased Sigma
T1 sequence (P00374 1-187): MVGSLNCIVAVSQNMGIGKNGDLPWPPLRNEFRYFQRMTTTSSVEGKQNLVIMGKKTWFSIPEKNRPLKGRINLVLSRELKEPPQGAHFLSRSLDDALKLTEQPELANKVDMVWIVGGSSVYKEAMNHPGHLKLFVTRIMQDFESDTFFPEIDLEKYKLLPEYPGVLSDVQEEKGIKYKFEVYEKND
Description: The human DHFR assay was done with DHFR assay kit (Sigma) following the manufacturer's instructions with minor modifications. Different concentrations of a test compound were incubated with human DHFR (0.1875 mU) and NADPH (60 μM) in the 1× assay buffer for 2 min at room temperature. Then DHF (50 μM) was added to initiate the reduction reaction, which was immediately monitored by absorbance at 340 nm every 12 s for 3 min. The final reaction volume was 100 μL and the final DMSO concentration was 1%. The reaction velocities were calculated as the slopes from the absorbance-time curves.

[7] = tested on: CREB-mediated gene transcription; experiment: CREB reporter assay (CRE-RLuc) in HEK 293T cells; format: cell-based, human; conditions: forskolin 10 μM
Description: FIG. 4 is a plot showing the activity of compound 7f on CREB mediated gene transcription in HEK 293T cells. HEK 293T cells were transfected with a CREB renilla luciferase reporter (CRE-RLuc). Then the cells were treated with increasing concentrations of 7f for 30 min before the addition of forskolin at a final concentration of 10 μM. The cells were further incubated for 5 hours before cell lysis and renilla luciferase activity measurement. The renilla luciferase activity was normalized to the protein concentration of the cell lysates and was expressed as relative luciferase unit (RLU)/μg of proteins.
Inhibition of CREB mediated transcription in HEK 293T cells by a CREB reporter assay was performed as described in Li and Xiao, 2009 supra.

[8] = tested on: LMNA/C; experiment: Chemoproteomic pulldown with probe 10 and Western blot, LMNA/C; format: binding, human; conditions: MDA-MB-468 cells, photocrosslinking, streptavidin pulldown, Western blot
Description: (§4) FIG. 5A is a schematic diagram of chemoproteomics experiments described in Example 38 below. MDA-MB-468 cells were treated with probe 10 with or without compound 7f. Then the cells were irradiated by UV followed by cell lysis. The lysates were clicked with a biotin-N3. The biotinylated proteins were pulled down with streptavidin beads. The bound proteins were trypsin-digested for LC-MS/MS analysis or eluted for Western analysis.
(§5) FIG. 5B is an image of a Western blot showing that 7f binds LMNA and LMNB1. The proteins from streptavidin-pulldown prepared as shown in FIG. 5A were subjected to Western blot with antibodies specific for the proteins indicated by the arrows to the right of the figure.
(§6) Unbiased chemical proteomics experiments involving photocrosslinking MDA-MB-468 cells treated with probe compound 10, clicking with a biotin-azide (biotin-N3), streptavidin pulldown and mass spectroscopic analyses identified nuclear lamins as the molecular targets of 7f. Nuclear lamins are type V intermediate filament proteins. In humans, there are three lamin genes (LMNA, LMNB1 and LMNB2) encoding four major proteins: LMNA, LMNC, LMNB1 and LMNB2. To further confirm that lamins are the targets, the biotinylated proteins prepared as shown in FIG. 5A were pulled down and analyzed by Western blot with individual antibodies (FIG. 5B).

[9] = biological target: T2, LMNB1 (Homo sapiens, UniProt P20700); experiment: Chemoproteomic pulldown with probe 10 and Western blot, LMNB1; format: binding; conditions: MDA-MB-468 cells, photocrosslinking, streptavidin pulldown, Western blot
T2 construct: endogenous in cells; host or cells: MDA-MB-468
T2 sequence (P20700 1-586): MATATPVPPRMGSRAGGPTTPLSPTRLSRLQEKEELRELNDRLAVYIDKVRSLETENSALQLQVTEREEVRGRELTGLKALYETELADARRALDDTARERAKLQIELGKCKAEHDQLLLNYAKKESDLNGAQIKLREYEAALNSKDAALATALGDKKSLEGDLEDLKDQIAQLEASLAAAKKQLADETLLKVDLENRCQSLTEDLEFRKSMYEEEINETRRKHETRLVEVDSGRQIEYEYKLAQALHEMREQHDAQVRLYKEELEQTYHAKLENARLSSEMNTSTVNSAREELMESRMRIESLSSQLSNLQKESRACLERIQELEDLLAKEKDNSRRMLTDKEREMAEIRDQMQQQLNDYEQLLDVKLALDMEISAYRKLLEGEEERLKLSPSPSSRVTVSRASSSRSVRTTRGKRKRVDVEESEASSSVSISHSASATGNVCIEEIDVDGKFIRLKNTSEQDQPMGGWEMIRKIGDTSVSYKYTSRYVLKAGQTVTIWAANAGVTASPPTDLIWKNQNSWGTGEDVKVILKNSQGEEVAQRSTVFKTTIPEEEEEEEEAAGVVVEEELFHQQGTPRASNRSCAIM
Description: as §4, §5, §6

| SMILES | melting point [°C] | GI50 [1] [µM] | GI50 [2] [µM] | other results |
| --- | --- | --- | --- | --- |
| Nc1nc(N)c2c(ccc3c2ccn3C(=O)c2ccc3ccccc3c2)n1 [Compound 2f] | 188 to 190 |  |  |  |
| CC(C)(C)[Si](C)(C)OCCCCC(=O)Nc1nc(N)c2c(ccc3[nH]ccc32)n1 [Compound 7e] | 140 to 142 | 2.43 ± 0.13 | 2.24 ± 0.4 | stability in 0.1% TFA [3]: instability |
| CC(=O)Nc1nc(N)nc2ccc3[nH]ccc3c12 [Compound 4a] | 236 to 238 | 32.6 ± 14 | 56.5 ± 18 |  |
| CC(=O)n1ccc2c3c(N)nc(N)nc3ccc21 [Compound 2a] | 202 to 204 |  |  | solubility (13C NMR sample) [4]: so limited |
| CC(C)C(=O)n1ccc2c3c(N)nc(N)nc3ccc21 [Compound 2d] | 200 to 202 |  |  |  |
| CC(C)(C)[Si](C)(C)OCCCCC(=O)n1ccc2c3c(N)nc(N)nc3ccc21 [Compound 2e] | 173 to 175 |  |  | stability in 0.1% TFA [3]: instability |
| Nc1nc(NC(=O)c2ccc3ccccc3c2)c2c(ccc3[nH]ccc32)n1 [Compound 4f] |  | 8.46 ± 2.56 | 8.91 ± 1.28 |  |
| CCCC(=O)Nc1nc(N)nc2ccc3[nH]ccc3c12 [Compound 4c] | 224 to 226 | 26.9 ± 12.9 | 26.3 ± 7.4 |  |
| CCC(=O)Nc1nc(N)nc2ccc3[nH]ccc3c12 [Compound 4b] | 226 to 228 | 18.7 ± 2.24 | 20.3 ± 7.4 |  |
| CC(C)C(=O)Nc1nc(N)nc2ccc3[nH]ccc3c12 [Compound 4d] |  | > 100 | > 100 |  |
| COc1cccc2c1C(=O)c1c(O)c3c(c(O)c1C2=O)C[C@@](O)(C(=O)CO)C[C@@H]3O[C@H]1C[C@H](N)[C@H](O)[C@H](C)O1 [Dox, doxorubicin, reference compound] |  |  | 0.12 | concentration toxic to normal HMEC cells ([5]; toxic at a concentration as low as): ≤ 0.1 µM |
| CC(=O)Nc1nc(N)c2c(ccc3[nH]ccc32)n1 [Compound 7a] | 260 to 262 | 27.2 ± 11.4 | 53.5 ± 29.5 |  |
| CCC(=O)Nc1nc(N)c2c(ccc3[nH]ccc32)n1 [Compound 7b] | 228 to 230 | 21.4 ± 9.86 | 24.4 ± 3.33 |  |
| CCC(=O)n1ccc2c3c(N)nc(N)nc3ccc21 [Compound 2b] | 210 to 212 |  |  | solubility (13C NMR sample) [4]: so limited |
| CCCCOc1cc2ccccc2cc1C(=O)Nc1nc(N)c2c(ccc3[nH]ccc32)n1 [Compound 7g, N-(1-Amino-7H-pyrrolo[3,2-f]quinazolin-3-yl)-3-butoxy-2-naphthamide] |  | 0.65 ± 0.43 | 0.1 ± 0.079 |  |
| Nc1nc(NC(=O)c2ccc3ccccc3c2)nc2ccc3[nH]ccc3c12 [Compound 7f] | 234 to 236 | 1.6 | 0.44 | concentration up to which not toxic to normal HMEC ([5]; 72-h incubation): ≥ 5 µM; concentration up to which human DHFR is not inhibited [6]: ≥ 10 µM; concentration up to which CREB-mediated gene transcription is not inhibited [7]: ≥ 10 µM; competition of probe 10 pulldown of LMNA/C [8]: competed; competition of probe 10 pulldown of LMNB1 [9]: competed |
| CCCC(=O)Nc1nc(N)c2c(ccc3[nH]ccc32)n1 [Compound 7c] | 262 to 264 | 25.5 ± 9.93 | 27.4 ± 4.52 |  |
| CC(C)(C)[Si](C)(C)OCCCCC(=O)Nc1nc(N)nc2ccc3[nH]ccc3c12 [Compound 4e] | 172 to 174 | 15.6 ± 7.66 | 11.1 ± 1.73 | stability in 0.1% TFA [3]: instability |
| CC(C)C(=O)Nc1nc(N)c2c(ccc3[nH]ccc32)n1 [Compound 7d] | 288 to 290 | 39.7 ± 22.5 | 29.8 ± 8.41 |  |
| CCCC(=O)n1ccc2c3c(N)nc(N)nc3ccc21 [Compound 2c] | 196 to 198 |  |  | solubility (13C NMR sample) [4]: so limited |
| Nc1nc(N)c2c(ccc3[nH]ccc32)n1 [Compound 1, 7H-Pyrrolo[3,2-f]quinazoline-1,3-diamine, reference compound] |  | 4.13 ± 0.54 | 3.34 ± 0.93 |  |
